Reference: patent US10208071B2, “Use of agonists of formyl peptide receptor 2 for treating ocular inflammatory diseases” (Allergan, Inc., priority 2013, dated 2019)

Biological target: FPR2 (Homo sapiens (Human), UniProt P25090)
Assay: FLIPR Ca+2 response, HEK-Gα16 cells stably expressing the human FPR2 receptor (Table 4)
Assay type: cell-based
Settings: for FPR2 (efficacy): efficacy in parentheses
Experimental: FLIPR: HEK-Gα16 cells stably expressing the human FPR2 receptor was utilized. Cells were plated into 384-well poly-D-lysine coated plates at a density of 18,000 cells per well one day prior to use. The growth media was DMEM medium supplemented with 10% fetal bovine serum (FBS), 1% antibiotic-antimycotic, 50 μg/ml hygromycin, and 400 μg/ml geneticin. On the day of the experiment, the cells were washed twice with Hank's Balanced Salt Solution supplemented with 20 mM HEPES (HBSS/hepes buffer). The cells were then dye loaded with 2 μM Fluo-4 diluted in the HBSS/Hepes buffer and incubated at 37° C. for 40 minutes. Extracellular dye was removed by washing the cell plates four times prior to placing the plates in the FLIPR (Fluorometric Imaging Plate Reader, Molecular Devices). Ligands were diluted in HBSS/Hepes buffer and prepared in 384-well microplates. Data for Ca^+2 responses were obtained in relative fluorescence units.

Chain of FPR2 (P25090 whole entry): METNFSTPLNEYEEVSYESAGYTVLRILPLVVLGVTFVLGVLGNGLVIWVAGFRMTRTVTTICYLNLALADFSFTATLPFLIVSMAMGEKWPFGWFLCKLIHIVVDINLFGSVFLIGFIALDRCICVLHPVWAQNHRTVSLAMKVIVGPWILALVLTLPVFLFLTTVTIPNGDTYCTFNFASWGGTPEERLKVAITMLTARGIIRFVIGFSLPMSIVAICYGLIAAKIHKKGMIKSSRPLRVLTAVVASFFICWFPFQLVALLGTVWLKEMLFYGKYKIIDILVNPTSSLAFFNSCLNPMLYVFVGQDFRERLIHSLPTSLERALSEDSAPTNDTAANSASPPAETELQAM

| FPR2 (efficacy) | EC50 [nM] | SMILES |
| --- | --- | --- |
| nM (0.91) | – | CSc1ccc(NC(=O)Nc2ccc3c(c2)C(=O)N(CCc2c[nH]cn2)C(c2ccc(Cl)cn2)C3)cc1 (stereo not drawn) [Compound 32, 1-{3-(5-chloropyridin-2-yl)-2-[2-(1H-imidazol-4-yl)ethyl]-1-oxo-1,2,3,4-tetrahydroisoquinolin-7-yl}-3-[4-(methylsulfanyl)phenyl]urea] |
| nM (0.99) | – | CS(=O)(=O)c1ccc(NC(=O)Nc2ccc3c(c2)C(=O)N(CCc2c[nH]cn2)C(c2ccc(Cl)cn2)C3)cc1 (stereo not drawn) [Compound 33, 1-{3-(5-chloropyridin-2-yl)-2-[2-(1H-imidazol-4-yl)ethyl]-1-oxo-1,2,3,4-tetrahydroisoquinolin-7-yl}-3-[4-(methylsulfonyl)phenyl]urea] |
| nM (0.83) | – | CC1(C)C2CCC1C(C(=O)Nc1ccc(Br)cc1)C2C(N)=O (stereo not drawn) [Compound 34, N-(4-bromophenyl)-7,7-dimethylbicyclo[2.2.1]heptane-2,3-dicarboxamide] |
| nM (0.81) | – | CC1(C)C2CCC1C(C(=O)Nc1ccc(I)cc1)C2C(N)=O (stereo not drawn) [Compound 35, N-(4-iodophenyl)-7,7-dimethylbicyclo[2.2.1]heptane-2,3-dicarboxamide] |
| nM (0.97) | 3.3 | CSc1ccc(NC(=O)Nc2ccc3c(c2)C(=O)N(CCCN)[C@@H](c2ccc(C#N)cc2)C3)cc1 [Compound 36, (+)1-[(3R)-2-(3-aminopropyl)-3-(4-cyanophenyl)-1-oxo-1,2,3,4-tetrahydroisoquinolin-7-yl]-3-[4-(methylsulfanyl)phenyl]urea] |
| nM (0.85) | 17 | CSc1ccc(NC(=O)C2C(C(N)=O)C3CCC2C3(C)C)cc1 (stereo not drawn) [Compound 37, 7,7-dimethyl-N-[4-(methylsulfanyl)phenyl]bicyclo[2.2.1]heptane-2,3-dicarboxamide] |
| nM (0.95) | 1.9 | NC(=O)C1C(C(=O)Nc2ccc(I)cc2)C2CCC1C21CC1 (stereo not drawn) [Compound 38, N-(4-iodophenyl) spiro[bicyclo[2.2.1]heptane-7,1′-cyclopropane]-2,3-dicarboxamide] |
| nM (0.90) | 1.6 | NC(=O)C1C(C(=O)Nc2ccc(I)cc2)C2C=CC1C21CC1 (stereo not drawn) [Compound 39, N-(4-iodophenyl) spiro[bicyclo[2.2.1]heptane-7,1′-cyclopropane]-5-ene-2,3-dicarboxamide] |
| nM (0.91) | 103 | C[S+]([O-])c1ccc(NC(=O)Nc2ccc3c(c2)C(=O)N(CCCNC(=O)OC(C)(C)C)[C@@H](c2ccc(C#N)cc2)C3)cc1 (stereo partly drawn) [Compound 40, (+) tert-butyl {3-[(3R)-3-(4-cyanophenyl)-7-({[4-(methylsulfinyl)phenyl]carbamoyl}amino)-1-oxo-3,4-dihydroisoquinolin-2(1H)-yl]propyl}carbamate] |
| nM (0.94) | – | C[S+]([O-])c1ccc(NC(=O)Nc2ccc3c(c2)C(=O)N(CCCN)[C@@H](c2ccc(C#N)cc2)C3)cc1 (stereo partly drawn) [Compound 41, (+) 1-[(3R)-2-(3-aminopropyl)-3-(4-cyanophenyl)-1-oxo-1,2,3,4-tetrahydroisoquinolin-7-yl]-3-[4-(methylsulfinyl)phenyl]urea] |
| nM (1.00) | – | CSc1ccc(NC(=O)Nc2ccc3c(c2)C(=O)N(CCCN)C(C)C3)cc1 (stereo not drawn) [Compound 42, 1-[2-(3-aminopropyl)-3-methyl-1-oxo-1,2,3,4-tetrahydroisoquinolin-7-yl]-3-[4-(methylsulfanyl)phenyl]urea] |
| nM (0.94) | 13.7 | N#Cc1ccc(C2Cc3ccc(NC(=O)Nc4ccc(I)cc4)cc3C(=O)N2CCCN)cc1 (stereo not drawn) [Compound 43, 1-[2-(3-aminopropyl)-3-(4-cyanophenyl)-1-oxo-1,2,3,4-tetrahydroisoquinolin-7-yl]-3-(4-iodophenyl)urea] |
| nM (0.98) | – | O=C(Nc1ccc(Br)cc1)[C@@H]1C2CCC([C@@H]1C(=O)O)C21CC1 (stereo partly drawn) [Compound 44, (+) (2S,3R)-3-[(4-bromophenyl)carbamoyl]spiro[bicyclo[2.2.1]heptane-7,1′-cyclopropane]-2-carboxylic acid] |
| nM (1.0) | 8.5 | CNC(=O)C1C(C(=O)Nc2ccc(Br)cc2)C2CCC1C21CC1 (stereo not drawn) [Compound 46, N-(4-bromophenyl)-N′-methylspiro[bicyclo[2.2.1]heptane-7,1′-cyclopropane]-2,3-dicarboxamide] |
| nM (1.0) | 9.3 | CCNC(=O)C1C(C(=O)Nc2ccc(Br)cc2)C2CCC1C21CC1 (stereo not drawn) [Compound 47, N-(4-bromophenyl)-N′-ethylspiro[bicyclo[2.2.1]heptane-7,1′-cyclopropane]-2,3-dicarboxamide] |
| nM (1.0) | 6.7 | CC(C)NC(=O)C1C(C(=O)Nc2ccc(Br)cc2)C2CCC1C21CC1 (stereo not drawn) [Compound 48, N-(4-bromophenyl)-N′-(propan-2-yl)spiro[bicyclo[2.2.1]heptane-7,1′-cyclopropane]-2,3-dicarboxamide] |
| nM (0.98) | 11.5 | CCC1(CC)NC(=O)N(NC(=O)Nc2ccc(Br)cc2)C1=O [Compound 49, 1-(4-bromophenyl)-3-(4,4-diethyl-2,5-dioxoimidazolidin-1-yl)urea] |

| FPR2 (efficacy) | EC50 [nM] | SMILES |
| --- | --- | --- |
| nM (1.0) | 15.7 | CCC1(CC)NC(=O)N(NC(=O)Nc2ccc(Br)cc2F)C1=O [Compound 50, 1-(4-bromo-2-fluorophenyl)-3-(4,4-diethyl-2,5-dioxoimidazolidin-1-yl)urea] |
| nM (1.0) | – | O=C(Nc1ccc(I)cc1)N[C@@H](Cc1ccccc1)C(=O)O [Compound 51, (2S)-2-{[(4-iodophenyl)carbamoyl]amino}-3-phenylpropanoic acid] |
| nM (1.0) | 15.1 | O=C(Nc1ccc(Br)cc1)NN1C(=O)NC2(CCCCC2)C1=O [Compound 52, 1-(4-bromophenyl)-3-(2,4-dioxo-1,3-diazaspiro[4.5]dec-3-yl)urea] |
| nM (0.87) | – | CC1(CCc2ccccc2)NC(=O)N(NC(=O)Nc2ccc(Br)cc2)C1=O (stereo not drawn) [Compound 54, 1-(4-bromophenyl)-3-[4-methyl-2,5-dioxo-4-(2-phenylethyl)imidazolidin-1-yl]urea] |
| nM (0.99) | – | O=C(O)CNC(=O)[C@H](Cc1ccccc1)NC(=O)Nc1ccc(Br)cc1 [Compound 55, {[(2S)-2-{[(4-bromophenyl)carbamoyl]amino}-3-phenylpropanoyl]amino}acetic acid] |
| nM (0.98) | – | O=C(O)CCNC(=O)[C@H](Cc1ccccc1)NC(=O)Nc1ccc(Br)cc1 [Compound 56, 3-{[(2S)-2-{[(4-bromophenyl)carbamoyl]amino}-3-phenylpropanoyl]amino} propanoic acid] |
| nM (0.86) | 7 | O=C(Nc1ccc(Br)cc1)N[C@@H](Cc1ccccc1)C(=O)NCCO [Compound 58, (2S)-2-{[(4-bromophenyl)carbamoyl]amino}-N-(2-hydroxyethyl)-3-phenylpropanamide] |
| nM (0.95) | – | CC[C@H](C)[C@H](NC(=O)Nc1ccc(Br)cc1F)C(=O)NCC(=O)O [Compound 59, {[(2S,3S)-2-{[(4-bromo-2-fluorophenyl)carbamoyl]amino}-3-methylpentanoyl]amino}acetic acid] |
| nM (0.91) | – | CC[C@H](C)[C@H](NC(=O)Nc1ccc(Br)cc1)C(=O)NCC(N)=O [Compound 60, (2S,3S)-N-(2-amino-2-oxoethyl)-2-{[(4-bromophenyl)carbamoyl]amino}-3-methylpentanamide] |
| nM (0.97) | 9.2 | CCC1(C(C)C)NC(=O)N(NC(=O)Nc2ccc(Br)cc2F)C1=O (stereo not drawn) [Compound 61, 1-(4-bromo-2-fluorophenyl)-3-[4-2,5-dioxo-4-(propan-2-yl)imidazolidin-1-yl]urea] |
| nM (1.0) | 10.3 | CC[C@H](C)[C@H](NC(=O)Nc1ccc(Br)cc1F)C(=O)NCC(N)=O [Compound 62, (2S,3S)-N-(2-amino-2-oxoethyl)-2-{[(4-bromo-2-fluorophenyl)carbamoyl]amino}-3-methylpentanamide] |
| nM (0.97) | 10.5 | CC[C@H](C)[C@H](NC(=O)Nc1ccc(Br)cc1)C(=O)NCC(C)=O [Compound 63] |
| nM (1.0) | 3.8 | CC(C)C1(C(C)C)NC(=O)N(NC(=O)Nc2ccc(Br)cc2)C1=O [Compound 64, 1-(4-bromophenyl)-3-[2,5-dioxo-4,4-di(propan-2-yl)imidazolidin-1-yl]urea] |
| nM (1.0) | – | O=C(Nc1ccc(Br)cc1)NN1C(=O)NC(C2CC2)(C2CC2)C1=O [Compound 65, 1-(4-bromophenyl)-3-(4,4-dicyclopropyl-2,5-dioxoimidazolidin-1-yl)urea] |
| nM (0.94) | 12.4 | CC(=O)CNC(=O)[C@H](Cc1ccccc1)NC(=O)Nc1ccc(Br)cc1F [Compound 68, (2S)-2-{[(4-bromo-2-fluorophenyl)carbamoyl]amino}-N-(2-oxopropyl)-3-phenylpropanamide] |
| nM (0.91) | 13.4 | CCC1(CCc2ccccc2)NC(=O)N(NC(=O)Nc2ccc(Br)cc2F)C1=O (stereo not drawn) [Compound 69, 1-(4-bromo-2-fluorophenyl)-3-[4-ethyl-2,5-dioxo-4-(2-phenylethyl)imidazolidin-1-yl]urea] |
| nM (1.0) | 7.1 | CCC[C@H](NC(=O)Nc1ccc(Br)cc1)C(=O)O [Compound 70, (2S)-2-{[(4-bromophenyl)carbamoyl]amino} pentanoic acid] |
